Laboratory results published in patent US5756491A, “Antiviral cobalt-organic compounds” (priority 1991, dated 1998).

Experiments:
RE strain HSV-1 [1] = test: HSV-1 recovery from tear film, cornea and trigeminal ganglia of treated rabbits; format: in vivo, NZW rabbit
Text: The specified number of NZW rabbits (1.5-2.0 kg) were used. Animals were received at least two days prior to inoculation to allow them to accommodate to the conditions in the vivarium facility. This conditioning of the animals prior to inoculation minimizes animal variability. After the accommodation, the animals received a slit-lamp examination to exclude any animals with pre-existing anterior segment ocular defects. Animals were bi-laterally inoculated by intrastromal injection of 10^5 PFU RE strain HSV-1. The animals were then replaced individually into cages.
[…] This was carried out by obtaining tear film by swabbing the lower and upper conjunctival sacs and retaining the swab in the nasal fornix for 10 seconds. The swabs were eluted individually in HBSS. 50 μl aliquots of the virus-HBSS eluate were absorbed under confluent HFF cell monolayers for 5 minutes. The monolayers were hydrated with MEM, incubated at 37° C. and observed daily for 1 to 2 weeks to detect developing cytopathology consistent with HSV infection (HSV CPE).
(§1) On day 10 PI, the animals were sacrificed, the corneal epithelium was scraped from the eyes and epithelial and corneal stromal cultures were preformed on HFF cell monolayers. The separation of epithelial virus from deeper stromal virus infection allows for analysis of HSV in these distinct corneal layers. Corneal epithelial and stromal co-cultures were evaluated daily by inverted light microscopy.
At sacrifice, trigeminal ganglia were removed, washed in HBSS, minced and floated over duplicate HFF cell monolayers. The cell co-cultures were monitored by inverted light microscopy for 2 weeks. Negative cultures were blind passaged twice at 7 day intervals. Detection of HSV CPE in the whole-cell co-cultures was scored either positive or negative. HSV recovery from inventive compound-treated, TFT-treated and placebo-treated trigeminal ganglia was compared and differences in recovery rates analyzed.
as §1, with “7” for “10”, “performed” for “preformed”

RE strain HSV-1 [2] = test: Topical efficacy in RE strain HSV-1-induced stromal keratitis in the rabbit; format: in vivo, NZW rabbit
Description: The following examples describe topical ocular evaluation of the inventive compounds during RE strain HSV-1-induced stromal keratitis in the rabbit. These evaluations included analysis of the topical efficacy of both the inventive compounds alone, or, in certain instances, in combination with trifluorothymidine (TFT). The evaluation was carried out by the combined analysis of both clinical and virological (HSV-1 recovery) parameters. The specified number of NZW rabbits (1.5-2.0 kg) were used. Animals were received at least two days prior to inoculation to allow them to accommodate to the conditions in the vivarium facility. This conditioning of the animals prior to inoculation minimizes animal variability. After the accommodation, the animals received a slit-lamp examination to exclude any animals with pre-existing anterior segment ocular defects. Animals were bi-laterally inoculated by intrastromal injection of 10^5 PFU RE strain HSV-1. The animals were then replaced individually into cages. On day number three post-inoculation (PI), the animals were evaluated by slit-lamp microscopy. Corneal stromal, iris and conjunctival disease were graded on an increasing scale of severity from 0+ to 4+. After evaluation, the animals were divided into a specified number of groups each containing an equal number of animals based on a matched corneal stromal involvement. Topical therapy was initiated immediately after animal groupings. All animals received daily slit-lamp evaluations from day 3 through 7 PI. The ocular HSV-1 induced disease severity was recorded daily. […] Differences in disease resolution and development of stromal alterations are statistically analyzed. Virus recovery during and after topical therapy was compared. The topical efficacy of Compounds 23 and 96 on stromal HSV-1 infection in the rabbit model of stromal keratitis was evaluated. All animals received daily slit lamp evaluations from day 3 through day 7 and on days 9 and 10 PI. The ocular HSV-1-induced disease severity was recorded daily. The topical efficacy of Compounds 23, 96 and 82 on stromal HSV-1 infection in the rabbit model of stromal keratitis was evaluated. All animals received daily slit lamp evaluations for day 3 through day 7 PI. The ocular HSV-1-induced disease severity was recorded daily. The topical efficacy of Compounds 23 and 96 in combination with TFT on stromal HSV-1 infection in the rabbit model of stromal keratitis was evaluated. Groups 1, 2 and 3 each have 5 animals for a total of 10 eyes per combination therapy. This allowed minimization of individual animal variability and performance of a statistical analysis on the results of the combination therapies. Groups 3, 4 and 5 have 2 animals each. These single-agent therapies were used to verify previously reported data on the efficacy of these compounds. The compounds are used at a lower frequency of delivery to match the dosing regimen of the combination-agent group. Consequently, the study also provides comparative information on Compounds 23 and 96 as a lower frequency of topical administration (4 times per day vs. 9 times per day in previous studies).

[3] = test system: human foreskin fibroblast (HFF) cell monolayers; test: Toxicity effects controls: sham-inoculated compound-treated HFF monolayers; format: cell-based; conditions: Experiment 5 (Table 13); also: key: +: toxic; -: no toxicity; ±: mild toxicity; T: toxicity effects interfered with CPE rating
Text: (§2) With sufficient stirring, all the compounds completely dissolved.
In the tables, the symbols have the meaning indicated: […]

HSV-1 McKrae Strain = test: Direct virucidal efficacy against HSV-1 on HFF monolayers; format: cell-based; conditions: for virucidal efficacy (HSV-1 titer): Experiment 5 (Table 12), 24 h PI
Description: HSV-1 McKrae Strain was diluted to a final concentration of 10^5 PFU/ml in minimal essential medium (MEM). Hereinafter, this dilution is referred to as the HSV-1 Suspension for convenience.
as §2
Each of the drug solutions were mixed with the HSV-1 Suspension in a 1:1 ratio. The drug and HSV-1 Suspension mixture was incubated at 37° C. for thirty minutes with agitation every ten minutes. After the incubation, fifty microliter aliquots were overlaid onto triplicate confluent human foreskin fibroblast (HFF) cell monolayers. The inoculum was absorbed for thirty minutes and then a medium containing the appropriate drug concentration in MEM was added to the monolayers to a final volume of 0.5 milliliters per culture-well. The monolayers were incubated at 37° C. The developing HSV-1 Cytopathology was monitored daily for two days by inverted light microscopy. Titers were calculated by multiple regression analysis. All data is presented as the average PFU/ml reduction at 24 and/or 48 hours after inoculation (PI).
1. HSV-1 inoculated, non-compound treated HFF monolayers were included as "positive controls"; and […]

O=c1[nH]c(=O)n([C@H]2C[C@H](O)[C@@H](CO)O2)cc1C(F)(F)F [TFT, trifluorothymidine]
HSV-1 recovery, corneal epithelium (C.E.) (RE strain HSV-1 [1]; Example 3 (Table 22)): 60%
HSV-1 recovery, corneal stroma (C.S.) (RE strain HSV-1 [1]; Example 3 (Table 22)): 60%
HSV-1 recovery, trigeminal ganglia (T.G.) (RE strain HSV-1 [1]; Example 3 (Table 22)): 60%
HSV-1 recovery, tear film (positive samples of total) (RE strain HSV-1 [1]; Example 3 (Table 22), day 3 PI): 100%
HSV-1 recovery, tear film (positive samples of total) (RE strain HSV-1 [1]; Example 3 (Table 22), day 5 PI): 80%
HSV-1 recovery, tear film (positive samples of total) (RE strain HSV-1 [1]; Example 3 (Table 22), day 7 PI): 30%
HSV-1 recovery, tear film (positive samples of total) (RE strain HSV-1 [1]; Example 3 (Table 22), day 9 PI): 0%
HSV-1 recovery, corneal stroma (RE strain HSV-1 [1]; Example 5 (Table 23)): 70%
HSV-1 recovery (positive cultures per total) (RE strain HSV-1 [1]; Example 5 (Table 23), column 1): 0%
HSV-1 recovery (positive cultures per total) (RE strain HSV-1 [1]; Example 5 (Table 23), column 3): 100%
HSV-1 recovery (positive cultures per total) (RE strain HSV-1 [1]; Example 5 (Table 23), column 5): 90%
HSV-1 recovery (positive cultures per total) (RE strain HSV-1 [1]; Example 5 (Table 23), column 7): 70%
efficacy ranking during stromal HSV-1 infection (RE strain HSV-1 [2]; Example 3, all eyes, FIG. 1, 1 mg/ml (TFT 0.1%), 9x/day, 5 days): Compound 96>>Compound 23>TFT>Placebo
efficacy ranking, average stromal disease scores (RE strain HSV-1 [2]; Example 4, FIG. 2): Compound 96>Compound 82>Compound 23>TFT=Placebo
effect on stromal disease severity/progression (RE strain HSV-1 [2]; Example 5, FIG. 5, initial stromal disease <0.5 on day 3 PI): ineffective in reducing the stromal disease severity
effect on development and progression of stromal disease (RE strain HSV-1 [2]; Example 5, FIG. 7, score <0.5 on day 3 PI, 4 times per day): ineffective in reducing the development and progression of stromal disease

CC([O-])=CC(C)=NCCN=C(C)C=C(C)[O-].Cc1cnc[nH]1.Cc1cnc[nH]1.[Br-].[Co+3] [Compound 97]
toxicity effects ([3]; 24 h, 0.00 mg/ml (so in the source)): -
toxicity effects ([3]; 24 h, 0.01 mg/ml): -
toxicity effects ([3]; 24 h, 0.5 mg/ml): -
toxicity effects ([3]; 48 h, 0.00 mg/ml (so in the source)): -
toxicity effects ([3]; 48 h, 0.01 mg/ml): -
toxicity effects ([3]; 48 h, 0.5 mg/ml): -
toxicity effects ([3]; 48 h, 5 mg/ml): +
virucidal efficacy (HSV-1 titer) (HSV-1 McKrae Strain; Run 1, 0.0001 mg/ml): 10^5 PFU/ml
virucidal efficacy (HSV-1 titer) (HSV-1 McKrae Strain; Run 1, 0.001 mg/ml): 10^5 PFU/ml
virucidal efficacy (HSV-1 titer) (HSV-1 McKrae Strain; Run 1, 0.01 mg/ml): 10^4 PFU/ml
virucidal efficacy (HSV-1 titer) (HSV-1 McKrae Strain; Run 1, 0.1 mg/ml): 10^1 PFU/ml
virucidal efficacy (HSV-1 titer) (HSV-1 McKrae Strain; Run 1, 1 mg/ml): 0 PFU/ml
virucidal efficacy (HSV-1 titer) (HSV-1 McKrae Strain; Run 1, 5 mg/ml): 0 PFU/ml
virucidal efficacy (HSV-1 titer) (HSV-1 McKrae Strain; Run 2, 0.001 mg/ml): 10^4 PFU/ml
virucidal efficacy (HSV-1 titer) (HSV-1 McKrae Strain; Run 2, 0.01 mg/ml): 10^1 PFU/ml
virucidal efficacy (HSV-1 titer) (HSV-1 McKrae Strain; Run 2, 0.1 mg/ml): 0 PFU/ml
virucidal efficacy (HSV-1 titer) (HSV-1 McKrae Strain; Run 2, 1 mg/ml): 0 PFU/ml
virucidal efficacy (HSV-1 titer) (HSV-1 McKrae Strain; Run 2, 5 mg/ml): 0 PFU/ml
effective virucidal concentration IC50 (HSV-1 McKrae Strain; Experiment 5 (Table 14), HSV-1): 0.1-.1 mg/ml
effective virucidal concentration IC90 (HSV-1 McKrae Strain; Experiment 5 (Table 14), HSV-1): 100 to 1000 mg/L
